These results are taken from patent US6525028B1, “Immunoeffector compounds” (Corixa Corporation, priority 2002, dated 2003).

A short description of one data set: Rabbit pyrogen test. It counts as in vivo, rabbits. The settings on record: for Pyrogenicity (total rise of 3 rabbits): total rise of 3 rabbits following i.v. 10 μg/Kg dose, solubilized in 10% EtOH/WFI, diluted with 5% dextrose in water. The text has this: In an effort to obtain an immunostimulant that has low pyrogenicity, synthetic molecules have been prepared which share structural similarities with the MPLO immunostimulant. These novel molecules which are collectively called aminoalkyl glucosaminide phosphates (AGPs), consist of an acylated […] moiety linked to an acylated aminoalkyl group (Johnson et al. (1999) Bioorg. Med. Chem. Lett. 9: 2273-2278; PCTAWO98/50399 and references therein). […] The substitution of different chemical moieties within the aminoalkyl structures was designed into the AGPs in anticipation of optimizing stability and solubility properties. Thus the AGPs can be broadly separated into several families based on the structure of their aminoalkyl groups. After initial biological evaluation, it became apparent that the aminoalkyl motifs could dramatically affect the pyrogenic properties of the AGPs (see U.S. patent application Ser. No. 09/074,720 filed May 7, 1998, and U.S. Pat. Nos. 6,113,918 and 6,303,347). As part of the initial screening process of the synthetic adjuvant compounds, rabbit pyrogenicity data was determined. […] Here we report on studies of the adjuvant properties of a class of AGPs which induce minimal activity in both the rabbit pyrogen test and the ex vivo cytokine assay.

The subject of data set [1] is Inducible Nitric Oxide Synthase (iNOS). Briefly: iNOS induction in IFN-γ primed J774 murine macrophages, Greiss reagent nitrite release (Example 9). It is filed as cell-based. The settings on record: IFN-γ primed J774 cells. As for the experimental part:
This example illustrates the effects of various glycolipids on iNOS induction in J774 murine macrophages. The murine macrophage cell line J774 can be primed by IFN-γ in vitro and is very responsive to subsequent LPS stimulation of iNOS upregulation as measured by a standard Greiss reagent ELISA assay procedure. The assay utilizes J774 cells seeded at 1×10^6/mL with 30 mL/flask and with IFN-γ added at 100 units/mL for 16-24 hrs. Cells are then harvested and washed and resuspended at 2×10^5/well in a 96-well plate and allowed to adhere. Glycolipid compounds are serially diluted into the wells for a test group and the resulting cultures are incubated for another 36-40 hrs before culture supernatants are collected from Greiss reagent analysis of nitrite release (Green et al. (1982) Anal. Biochem. 126: 131-138). Nitrite content closely parallels iNOS function.
Potency was determined as the concentration (ng/mL) of glycolipid in culture capable of inducing one-half maximal induction of nitrite (ED50). The lower the ED50 number, the greater the potency for iNOS induction. The ED50 was cacluated according to methods set out in Johnson et al., (1999) J Med Chem. 42: 4640-4649.

The conditions of data set [2]: cited from earlier work.
In another data set the test system is TNF-α. Nature of the data set: Ex vivo cytokine induction, TNF-α by sandwich ELISA (Example 8). It counts as cell-based. As to conditions: human blood cells, 4 hr at 37° C. As for the experimental part:
(§1) The effects of Compound II on the elaboration of TNF-α and IL-1β was measured under ex vivo conditions on human peripheral blood mononuclear cells. MPL® immunostimulant and Compound II were formulated in aqueous solutions of 0.2% TEoA/WFI.
(§2) Human whole blood was used to evaluate the ability of glycolipids (AGPS) to induce proinflammatory cytokines. Human whole blood is collected into heparinized tubes and 0.45 ml of whole blood is admixed with 0.05 ml phosphate buffered saline (PBS, pH 7.4) containing the glycolipid (i.e., the test compounds). The tubes are incubated for 4 hr at 37° C. on a shaker apparatus. The samples are then diluted with 1.5 ml sterile PBS and centrifuged. The supernatants are removed and analyzed for […] TNF-α and IL-1β by sandwich ELISA using R&D Systems' Quantikine immunoassay kits for human TNF-α and IL-1β.

The test system of the next data set is IL-1β. Briefly: Ex vivo cytokine induction, IL-1β by sandwich ELISA (Example 8). It counts as cell-based, human. The settings on record: for relative induction of IL-1β: level induced with MPL immunostimulant assigned a value of 1. As for the experimental part: as §1, §2
For data set [3], the system named is hemagglutinin protein in FluZone influenza vaccine. Briefly: Adjuvant activity towards hemagglutinin protein in FluZone influenza vaccine, FluZone ELISA (Example 5). The settings on record: for Serum Titers IgG / Serum Titers IgG1 / Serum Titers IgG2a / Serum Titers IgG2b: s.c. 0.2 μg hemagglutinin in FluZone + 20 μg adjuvant day 0 and 14, pooled sera of 5 mice 14 days post secondary.
Protocol: Groups of BALB/c mice (Jackson Laboratories Bar Harbor, Me.) 6-8 weeks old were injected subcutaneous with 0.2 μg hemagglutinin protein in FluZone influenza vaccine (Connaught Laboratories, Swiftwater, Pa.) ±20 μg adjuvant (MPL® immunostimulant orCompound II) on day 0 and day 14. […] The nonimmune controls were not vaccinated. The initial dilutions used on sera from test groups was 1:1600.

The test system of data set [4] is HBsAg (Hepatitis B Surface Antigen). Briefly: Adjuvant activity towards HBsAg, serum titers by ELISA (Example 4). As to conditions: for Serum Titers IgG / Serum Titers IgG1 / Serum Titers IgG2a / Serum Titers IgG2b: s.c. 2 μg HBsAg + 20 μg adjuvant day 0 and 21, pooled sera (5 mice/group) 21 days post-secondary. It is filed as in vivo, BALB/c mice. How it is done: Vaccines were prepared by mixing the adjuvant-containing TEoA (triethanolamine) formulations with recombinant HBsAg. Titers to HBsAg were determined by ELISA from pooled sera (5 mice/group) collected 21 days post-secondary vaccination (Table 1). The nonimmune controls were not vaccinated.

The subject of the next data set is HBsAg. Nature of the data set: Adjuvant activity towards HBsAg, IgG1 and IgG2a isotype titers by ELISA (Example 6). It is filed as in vivo, BALB/c mice. As to conditions: for Serum Titers IgG1 / Serum Titers IgG2a: s.c. 2.0 μg HBsAg + 25 μg adjuvant day 0 and 21, pooled sera 21 days post secondary; for titers to HBsAg, in words: versus control group receiving antigen in PBS / positive control MPL. How it is done: Groups of BALB/c mice injected subcutaneous with 2.0 μg HBsAg(Rhein Americana, & Rhein Biotech) ±25 μg adjuvant (MPLO immunostinulant orCompound II) on day 0 and day 21. IgG1 and IgG2a isotype titers to HBsAg were determined by ELISA from pooled sera collected 21 days post secondary (Table 3). The nonimmune controls were not vaccinated.

Setting [5] is: versus control sera receiving antigen alone.

“Also recorded” adds a separate entry of the source. Counter-ions that a name gives are not always drawn. Bounds are passed on as bounds.

Consider “Monophosphoryl lipid A [MPL® immunostimulant, reference compound]”, for which, in the data set “Rabbit pyrogen test”, the “Pyrogenicity (total rise of 3 rabbits)” value was 2-3 °C. In addition, in data set [1], the “iNOS induction / nitrite elaboration, in words” value was “high levels of nitrite elaboration”. Besides, the “dose that can be safely administered to humans” value in data set [2] (humans) is reported as “at least 20 μg/kg”. Also, the “dose levels at which increases in temperature, flu-like symptoms, increasing heart rate and modest decreases in blood pressure can occur” value in data set [2] (some patients) was not below 0.01 mg/kg. For the same compound, the “concentration effective at inducing TNF-α” value with TNF-α is listed as 100 to 10,000 ng/mL. Moreover, the “relative induction of IL-1β” value in the data set on IL-1β amounted to 1. Further, in data set [3], the “Serum Titers IgG” value is recorded as 102,400, the “Serum Titers IgG1” value is 102,400, the “Serum Titers IgG2a” value is given as 25,600 and the “Serum Titers IgG2b” value is reported as 12,800. For the same compound, in data set [4], the “Serum Titers IgG” value is on record as 409,600, the “Serum Titers IgG1” value is on record as 204,800, the “Serum Titers IgG2a” value is recorded as 204,800 and the “Serum Titers IgG2b” value is 51,200. For the same compound, in the data set with HBsAg, the “Serum Titers IgG1” value is recorded as 128,000 and the “Serum Titers IgG2a” value is listed as 1,024,000.
For “N-[(R)-3-tetradecanoyloxytetradecanoyl]-(S)-2-pyrrolidinylmethyl 2-deoxy-4-O-phosphono-2-[(R)-3-tetradecanoyloxytetradecanoylamino]-3-O-[(R)-3-tetradecanoyloxytetradecanoyl]-β-D-glucopyranoside triethylammonium salt [Compound II]”, the “titers to HBsAg, in words” value with HBsAg was “titers equivalent to the positive controls”.
Regarding `CCCCCCCCCCCCCC(=O)O[C@H](CCCCCCCCCCC)CC(=O)N[C@H]1[C@H](OC[C@@H]2CCCN2C(=O)C[C@@H](CCCCCCCCCCC)OC(=O)CCCCCCCCCCCCC)O[C@H](CO)[C@@H](OP(=O)(O)O)[C@@H]1OC(=O)C[C@@H](CCCCCCCCCCC)OC(=O)CCCCCCCCCCCCC` [Compound II, N-[(R)-3-tetradecanoyloxytetradecanoyl]-(S)-2-pyrrolidinylmethyl 2-deoxy-4-O-phosphono-2-[(R)-3-tetradecanoyloxytetradecanoylamino]-3-O-[(R)-3-tetradecanoyloxytetradecanoyl]-β-D-glucopyranoside triethylammonium salt], the “fever response in the rabbit pyrogen test, in words” value in “Rabbit pyrogen test” (i.v. 10 μg/kg) is on record as “apparent lack of fever”. Further, the “Pyrogenicity (total rise of 3 rabbits)” value in the data set “Rabbit pyrogen test” is 0.3 °C. For the same compound, the “induction of TNF-α, in words” value in the data set with TNF-α (Compound II at 1, 5 and 10 μg/ml) was “did not produce levels of TNF-α that could be detected; also recorded: without inducing detectable levels”. In addition, in the data set on IL-1β (ex vivo, human blood cells, 4 hr at 37° C., Compound II at 1, 5 and 10 μg/ml), the “induction of IL-1β, in words” value is “did not produce detectable levels of IL-1β; also recorded: without inducing detectable levels”. Moreover, the “relative induction of IL-1β” value with IL-1β is not above 0.05. Besides, in data set [3], the “Serum Titers IgG” value is listed as 51,200, the “Serum Titers IgG1” value is given as 102,400, the “Serum Titers IgG2a” value is 25,600 and the “Serum Titers IgG2b” value stood at 6400. Further, the “titers to FluZone, in words” value in data set [3] (setting [5]) is listed as “significantly higher than control sera receiving antigen alone”. In data set [4], the “Serum Titers IgG” value is on record as 409,600, the “Serum Titers IgG1” value is on record as 204,800, the “Serum Titers IgG2a” value was 409,600 and the “Serum Titers IgG2b” value is recorded as 51,200. Also, in data set [4] (setting [5]), the “anti-HBsAg responses (serum titers), in words” value is “significantly higher than control sera receiving antigen alone”. Moreover, in the data set with HBsAg, the “Serum Titers IgG1” value is listed as 32,000; the “Serum Titers IgG2a” value is 2,048,000; the “titers to HBsAg, in words” value is “increased titers compared to the control group”.
